Test results as given in patent US9603878B2, “Probiotic and prebiotic compositions, and methods of use thereof for treatment and prevention of graft versus host disease” (Evelo Biosciences, Inc., priority 2014, dated 2017).

How the values were obtained:
[1] = test system: Tregs in the large intestine; conditions: germ-free mice and vancomycin-treated conventional mice; cited from earlier work
blautia = assay: Sugar fermentation/growth in media lacking glucose (pH and optical density)
Lactobacillus johnsonii = assay: as above
C57B1/6 female mice = conditions: mouse, in vivo
Method: The possibility that modification of the microbiome in a given physical location may influence the microbiome at other sites in the body (distal augmentation) was investigated. Seven week old C57B1/6 female mice were acclimatized for 7 days prior to the start of the study by daily handling and shuffling between cages. All mice were housed at three mice per cage in individually vented cages (Thoren, Hazleton, Pa.). At day 0, baseline fresh fecal pellets, and vaginal lavages with 100 μL of sterile double-distilled water were collected and immediately frozen at −80° C. for microbiome analysis. […] Water alone is not expected to influence the microbiome and acted as a negative control. […] The impact of oral vancomycin is therefore expected to be limited to the gastrointestinal tract such that microbiome changes elsewhere in the body (e.g. vagina) would be attributable to distal augmentation. At day 6, fresh fecal pellets and vaginal lavages with 100 μL of sterile double-distilled water were collected and immediately stored at −80° C. for microbiome analysis.
Isolation and sequencing of microbial DNA from the stool and vaginal samples was performed by DNA Genotek (Ottawa, ON, Canada). The V3-V4 region of the 16S ribosomal subunit was amplified with custom PCR primers and sequenced on an Illumina MiSeq to a minimum acceptable read depth of 25,000 sequences per sample. […]

[2] = test system: healthy, adult volunteers; conditions: human, in vivo
Method: D-xylose is a carbon source generally preferred by anaerobic bacteria. […] A parallel, double-blind, 5 cohort escalation food safety study was conducted to examine D-xylose in normal human volunteers. The study was a double-blind, single-center, parallel group study designed to evaluate the tolerability and potential microbiome changes induced by ingestion of D-xylose at 5 different amounts in healthy, adult volunteers enrolled at 1 study center in the United States (US).
Subjects were screened for eligibility within 21 days prior to the first planned ingestion of study sweetener on Day 1 (Baseline). […]
Subjects returned to the study center weekly on Days 8, 15, 22, and 28 for ingestion, tolerability, and compliance evaluations. Safety was evaluated on a continual basis through adverse events (AE) monitoring, clinical laboratory measurements, vital sign monitoring, physical examinations, electrocardiograms (ECGs), telephone follow-up, and electronic subject ingestion diaries. Stool was collected pre-ingestion and at pre-specified time points, and post-ingestion samples were evaluated for changes in the gut microbiome compared with Baseline for all subjects. […]
Safety was evaluated on a continual basis through AE monitoring, clinical laboratory measurements, vital sign monitoring, physical examinations, ECGs, telephone follow-up, and electronic subject ingestion diaries. […]

[3] = test system: healthy, adult volunteers; assay: Normal human volunteer study of D-xylose: CRP, serum cytokines, T-cell markers; type: in vivo
From the text: Blood was collected at pre-specified pre- and post-ingestion time points to evaluate C-reactive protein (CRP), serum cytokines (tumor necrosis factor alpha [TNF-α], interleukin [IL]-2, IL-6, interferon gamma [IFN-γ], and IL-10), and T-cell markers CD3, CD4, CD8, CD25, and FOXP3. Plasma was also stored and may be tested for biomarkers and/or metabolic markers for up to 7 years.
Summary statistics (n, mean, standard deviation, median, minimum, and maximum) were presented for serum concentrations of CRP, flow cytometry T-cell markers (CD3, CD4, CD8, CD25, and FOXP3), and cytokines (TNF-α, IL-2, IL-6, IFN-γ, and IL-10) as per their nominal time points.

gut microbiome = assay: Normal human volunteer study of D-xylose: changes in the gut microbiome (stool 16S); type: in vivo; conditions: for alpha diversity of the gut microbiome: over time on study
mice with GVHD = assay: Xylose in drinking water in experimental GVHD model after BMT; type: in vivo, mouse
normal mice = assay: Mouse study: gut microbiome after xylose treatment; type: in vivo
tumors = conditions: oral administration; anti-PD-1 / anti-CTLA-4 antibody therapy; cited from earlier work

CC(=O)O [acetate]
numbers of Tregs in the large intestine [1]: restored normal numbers of Tregs in the large intestine

CCC(=O)O [propionate]
numbers of Tregs in the large intestine [1]: restored normal numbers of Tregs in the large intestine

C[C@H](O)[C@H](O)[C@@H](O)[C@@H](O)C=O [rhamnose]
augmentation / fermentation by blautia (blautia): specifically augments blautia
augmentation / fermentation by lactobacillus (Lactobacillus johnsonii): not lactobacillus

CN[C@H](CC(C)C)C(=O)N[C@H]1C(=O)N[C@@H](CC(N)=O)C(=O)N[C@H]2C(=O)N[C@H]3C(=O)N[C@H](C(=O)N[C@H](C(=O)O)c4cc(O)cc(O)c4-c4cc3ccc4O)[C@H](O)c3ccc(c(Cl)c3)Oc3cc2cc(c3O[C@@H]2O[C@H](CO)[C@@H](O)[C@H](O)[C@H]2O[C@H]2C[C@](C)(N)[C@H](O)[C@H](C)O2)Oc2ccc(cc2Cl)[C@H]1O [vancomycin]
impact on the microbiome of the gut (PCA, family level) (C57B1/6 female mice): strong impact on the microbiome of the gut
impact on the vaginal microbiome (PCA, family level) (C57B1/6 female mice): showed an overall difference between the PBS and oral vancomycin groups

O=C[C@H](O)[C@@H](O)[C@H](O)CO [xylose, D-xylose]
SAEs, severe AEs, deaths [2]: No SAEs, severe AEs, or subject deaths were reported
total T-cells and T-cell subsets over time ([3]; any ingestion amount): No consistent or clinically meaningful changes over time in total T-cells or any T-cell subsets
subjects with normal serum CRP at Baseline and at least 1 post-ingestion CRP value >2.9 mg/L ([3]; cohorts combined): 8.3%
serum cytokines (TNF-α, IL-2, IL-6, IFN-γ, IL-10) over time ([3]; most data points BLQ): did not indicate any consistent or clinically meaningful changes over time
gut microbiome community composition over time (gut microbiome; regardless of ingestion amount): no significant changes in community composition
alpha diversity of the gut microbiome (gut microbiome; regardless of ingestion amount): no major shifts in the microbiome alpha diversity
alpha diversity of the gut microbiome (gut microbiome; regardless of ingestion amount, listed as D-xylose): no apparent significant impact on the intra-sample alpha diversity of the gut microbiome
Chao diversity index over time (gut microbiome; xylose TID at 1, 2, 8, 12.5 or 15 grams): overall decrease in the Chao diversity index over time
survival of mice with GVHD (mice with GVHD; long-term administration): led to improved survival of mice with GVHD
Blautia in the intestinal flora (mice with GVHD; xylose in drinking water, day 14 after BMT): lead to an expansion of Blautia in the intestinal flora
augmentation / fermentation by blautia (blautia): specifically augments blautia
augmentation / fermentation by lactobacillus (Lactobacillus johnsonii): not lactobacillus
shifts in the gut microbiome (normal mice): did not cause major shifts in the gut microbiome but showed some differences at the family level

Bacteroides
responsiveness to checkpoint inhibitor therapy in cancer (tumors): increases the responsiveness

Bifidobacterium
responsiveness to checkpoint inhibitor therapy in cancer (tumors): increases the responsiveness
